{"source": "patent US7141561B2", "about": "“Substituted diaryl heterocycles, process for their preparation and their use as medicaments” (Sanofi-Aventis Deutschland GmbH, priority 2002, dated 2006)", "system": "female NMRI mice", "test": "Anorectic effect: cumulative condensed milk consumption of mice", "type": "in vivo", "details": "oral dose 30 mg/kg by gavage", "procedure": "The anorectic effect was tested on female NMRI mice. After withdrawal of food for 17 hours, the test compound was administered by gavage. The animals were housed singly with free access to drinking water and were offered condensed milk 30 minutes after administration of the compound. Condensed milk consumption was determined every half hour for 7 hours, and the general wellbeing of the animals was observed. The measured milk consumption was compared with the vehicle-treated control animals.\nTable 1: Anorectic effect measured as the reduction in the cumulative milk consumption of treated compared with control animals.", "data": [{"smiles": "CN(C)CCOc1ccc(-n2ccn(-c3ccc(Oc4ccccc4)cc3)c2=O)cc1", "note": "[Example 1, 1-[4-(2-Dimethylaminoethoxy)phenyl]-3-(4-phenoxyphenyl)-1,3-dihydroimidazol-2-one]", "values": [{"measurement": "cumulative milk consumption of the treated animals", "setting": "female NMRI mice after 17 hours food withdrawal, N=5, consumption determined for 7 hours", "value": "5/1.7 ml"}, {"measurement": "Reduction in the cumulative milk consumption as % of the control", "setting": "female NMRI mice, compared with vehicle-treated control animals", "value": 58, "unit": "%"}]}]}
